Test results taken from patent US11697667B2, “Salts and polymorphs of cethromycin for the treatment of disease” (AliquantumRx, Inc., priority 2019, dated 2023).
In brackets after ≈: the same amount, converted by molar mass. Several values for one entry are separate records, joined by “and”; a condition that tells them apart may be missing. Equal entries are not always repeated. Entries after “also recorded” stand apart in the source; their conditions may differ.

Legend:
Format in all cases: physicochemical
[1] = Thermodynamic solubility (24 hours) in PBS media; conditions: PBS pH 7.4, 24 hr (Table 33)
Procedure: (§1) Sufficient sample was suspended in 0.25 ml media for a maximum anticipated concentration of ca. 40 mg/ml of the free form of the compound. The resulting suspensions were then shaken at 25° C./750 rpm for 24 hours. The pH of samples suspended in PBS pH 7.4 were checked and adjusted if necessary (>0.05 change in pH) after 2 hours. After equilibration, the appearance was noted and the pH of the saturated solution was measured. Samples were then filtered through a glass ‘C’ fibre filter (Particle retention 1.2 μm). Samples suspended in PBS pH 7.4 buffer was diluted 10 times with PBS buffer and samples suspended in DI water diluted 100 times with DI water.

[2] = PXRD of residues undissolved after solubility analysis
Procedure: PXRD analysis was performed on residues that remained undissolved after the solubility analysis to check for changes in solid form.

[3] = Thermodynamic solubility (24 hours) in DI water
Procedure: as §1

[4] = Kinetic solubility (2 hours) in SGF media
Procedure: Sufficient sample was suspended in 0.25 ml media for a maximum anticipated concentration of ca. 40 mg/ml of the free form of the compound. The resulting suspensions were then shaken at 25° C./750 rpm for 2 hours. After equilibration, the appearance was noted, and the pH of the saturated solution was measured. Samples were then filtered through a glass ‘C’ fibre filter (particle retention 1.2 μm). All the samples were diluted 100 times with SGF media. […] Different volumes of the standard and diluted sample solutions were injected.

[5] = Preliminary solubility investigation of amorphous cethromycin in solvents; conditions: for Solubility: 50 °C, organic solvent or mixture, thermodynamic from solid, heated to 50° C.
Procedure: Amorphous cethromycin (25 mg) in HPLC vials was treated with increasing volumes of solvent until the material fully dissolved or until a maximum of 60 vol (1.5 ml) had been added. After each addition of solvent, the vials were stirred and gently heated to 50° C. before the addition of a new aliquot of solvent. […] All solids were then isolated by filtration and dried under suction. Antisolvent (n-heptane, 10 or 20 vol) was added to any solutions and the resulting gums were matured in a chamber switching from 25° C. to 50° C. every four hours. All isolated solids were analysed by PXRD.

[6] = Solubility assessment of amorphous cethromycin chloride in solvents at 25° C.
[7] = Storage stability at 40° C./75% RH and 25° C./97% RH (PXRD, HPLC, NMR); conditions: 9 days, Batch D
Procedure: Studies were performed on various cethromycin forms in order to determine stability for storage.

Structure (SMILES): CCC1OC(=O)C(C)C(=O)C(C)C(OC2OC(C)CC(N(C)C)C2O)C(C)(OCC=Cc2cnc3ccccc3c2)CC(C)C(=O)C(C)C2NC(=O)OC12C (stereo not drawn) [Free form]
- Avg Sol'y [1]: 2.0 mg/mL
- Sol'y [1]: 2.0 mg/mL and 1.9 mg/mL
- pH at 24 hrs [1]: 6.8
- PXRD of Residues ([2]; PBS pH 7.4, 24 hr): freebase pattern 2
- PXRD of Residues ([2]; SGF media, 2 hr): amorphous
- Avg Sol'y ([3]; DI Water, 24 hr (Table 34)): 0.41 mg/mL
- Sol'y ([3]; DI Water, 24 hr (Table 34)): 0.47 mg/mL and 0.35 mg/mL
- pH at 24 hrs ([3]; DI Water, 24 hr (Table 34)): 8.1
- Avg Sol'y ([4]; 2 hr (Table 32)): 25 mg/mL
- Sol'y ([4]; 2 hr (Table 32)): 24 mg/mL
- pH at 2 hrs ([4]; 2 hr (Table 32)): 7.6 and 7.5

Structure (SMILES): CC[C@H]1OC(=O)[C@H](C)C(=O)[C@H](C)[C@@H](O[C@@H]2O[C@H](C)C[C@H](N(C)C)[C@H]2O)[C@](C)(OC/C=C/c2cnc3ccccc3c2)C[C@@H](C)C(=O)[C@H](C)[C@H]2NC(=O)O[C@@]21C [Cethromycin, (3aS,4R,7R,9R,10R,11R,13R,15R,15aR)-10-(((2S,3R,4S,6R)-4-(dimethylamino)-3-hydroxy-6-methyltetrahydro-2H-pyran-2-yl)oxy)-4-ethyl-3a,7,9,11,13,15-hexamethyl-11-(((E)-3-(quinolin-3-yl)allyl)oxy)octahydro-2H-[1]oxa-cyclotetradecino[4,3-d]oxazole-2,6,8,14(1H,7H,9H)-tetraone]
- Solubility ([5]; 2-propanol, 10 vol): > 100 mg/mL
- Solubility in solvents ([5]; 10 vol of THF:H2O (9:1), 2-propanol, EtOH, EtOAc, acetone, MeCN, THF, TBME and DCM): readily soluble
- Solubility ([5]; DCM, 10 vol): > 100 mg/mL
- Solubility ([5]; EtOAc, 10 vol): > 100 mg/mL
- Solubility ([5]; EtOH, 10 vol): > 100 mg/mL
- Solubility ([5]; Hept (heptane), Hept, 10 vol): < 100 mg/mL
- Solubility ([5]; Hept (heptane), Hept, 20 vol): < 50 mg/mL
- Solubility ([5]; Hept (heptane), Hept, 30 vol): < 33.3 mg/mL
- Solubility ([5]; Hept (heptane), Hept, 40 vol): < 25 mg/mL
- Solubility ([5]; Hept (heptane), Hept, 50 vol): < 20 mg/mL
- Solubility ([5]; Hept (heptane), Hept, 60 vol): < 16.7 mg/mL
- Solubility ([5]; MeCN, 10 vol): > 100 mg/mL
- Solubility ([5]; TBME, 10 vol): > 100 mg/mL
- Solubility ([5]; THF, 10 vol): > 100 mg/mL
- Solubility ([5]; THF:H2O (9:1), THF:H2O (9:1), 10 vol): > 100 mg/mL
- Solubility ([5]; acetone, 10 vol): > 100 mg/mL
- pH of the saturated solution, thermodynamic solubility in DI water ([3]; DI water, 24 hours): 7.0
- solubility thermodynamic at 24 h ([3]; thermodynamic from solid, DI water, 24 hours, 25° C.): 0.4 mg/mL (≈ 0.522 mM)
- solubility kinetic at 2 h ([4]; simulated gastric fluid, thermodynamic from solid, 2 hours, 25° C.): 25 mg/mL (≈ 32.6 mM)

Structure (SMILES): CCC1OC(=O)C(C)C(=O)C(C)C(OC2OC(C)CC(N(C)C)C2O)C(C)(OCC=Cc2cnc3ccccc3c2)CC(C)C(=O)C(C)C2NC(=O)OC12C.Cl (stereo not drawn) [amorphous cethromycin chloride]
- Solubility in selected solvents ([6]; 18 solvents): soluble in 10 of the 18 solvents
- Solubility ([6]; Acetone, 1 vol): ✓ (dissolved)
- Solubility ([6]; EtOAc, 1 vol): x (not dissolved/too dry to slurry)
- Solubility ([6]; EtOAc, 2 vol): x (not dissolved/too dry to slurry)
- Solubility ([6]; EtOAc, 3 vol): x (not dissolved/too dry to slurry)
- Solubility ([6]; EtOAc, 4 vol): x (not dissolved/too dry to slurry)
- Solubility ([6]; EtOAc, 5 vol): ✓o (slurry)
- Solubility ([6]; EtOH/H2O (10%), 1 vol): ✓ (dissolved)
- Solubility ([6]; Ethanol, 1 vol): ✓ (dissolved)
- Solubility ([6]; Hept, 1 vol): x (not dissolved/too dry to slurry)
- Solubility ([6]; Hept, 2 vol): x (not dissolved/too dry to slurry)
- Solubility ([6]; Hept, 3 vol): x (not dissolved/too dry to slurry)
- Solubility ([6]; Hept, 4 vol): x (not dissolved/too dry to slurry)
- Solubility ([6]; Hept, 5 vol): x (not dissolved/too dry to slurry)
- Solubility ([6]; Hept, 10 vol): ✓o (slurry)
- Solubility ([6]; MEK, 1 vol): x (not dissolved/too dry to slurry)
- Solubility ([6]; MEK, 2 vol): x (not dissolved/too dry to slurry)
- Solubility ([6]; MEK, 3 vol): x (not dissolved/too dry to slurry)
- Solubility ([6]; MEK, 4 vol): x (not dissolved/too dry to slurry)
- Solubility ([6]; MEK, 5 vol): ✓o (slurry)
- Solubility ([6]; MIBK, 1 vol): x (not dissolved/too dry to slurry)
- Solubility ([6]; MIBK, 2 vol): x (not dissolved/too dry to slurry)
- Solubility ([6]; MIBK, 3 vol): x (not dissolved/too dry to slurry)
- Solubility ([6]; MIBK, 4 vol): x (not dissolved/too dry to slurry)
- Solubility ([6]; MIBK, 5 vol): ✓o (slurry)
- Solubility ([6]; MTBE, 1 vol): x (not dissolved/too dry to slurry)
- Solubility ([6]; MTBE, 2 vol): x (not dissolved/too dry to slurry)
- Solubility ([6]; MTBE, 3 vol): x (not dissolved/too dry to slurry)
- Solubility ([6]; MTBE, 4 vol): x (not dissolved/too dry to slurry)
- Solubility ([6]; MTBE, 10 vol): ✓o (slurry)
- Solubility ([6]; MeCN, 1 vol): ✓ (dissolved)
- Solubility ([6]; MeOH, 1 vol): ✓ (dissolved)
- Solubility ([6]; THF, 1 vol): x (not dissolved/too dry to slurry)
- Solubility ([6]; THF, 2 vol): x (not dissolved/too dry to slurry)
- Solubility ([6]; THF, 3 vol): x (not dissolved/too dry to slurry)
- Solubility ([6]; THF, 4 vol): x (not dissolved/too dry to slurry)
- Solubility ([6]; THF, 5 vol): ✓ (dissolved)
- Solubility ([6]; THF/H2O (10%), 1 vol): ✓ (dissolved)
- Solubility ([6]; Toluene, 1 vol): x (not dissolved/too dry to slurry)
- Solubility ([6]; Toluene, 2 vol): x (not dissolved/too dry to slurry)
- Solubility ([6]; Toluene, 3 vol): x (not dissolved/too dry to slurry)
- Solubility ([6]; Toluene, 4 vol): x (not dissolved/too dry to slurry)
- Solubility ([6]; Toluene, 5 vol): x (not dissolved/too dry to slurry)
- Solubility ([6]; Toluene, 10 vol): ✓o (slurry)
- Solubility ([6]; cHex, 1 vol): x (not dissolved/too dry to slurry)
- Solubility ([6]; cHex, 2 vol): x (not dissolved/too dry to slurry)
- Solubility ([6]; cHex, 3 vol): x (not dissolved/too dry to slurry)
- Solubility ([6]; cHex, 4 vol): x (not dissolved/too dry to slurry)
- Solubility ([6]; cHex, 5 vol): x (not dissolved/too dry to slurry)
- Solubility ([6]; cHex, 10 vol): ✓o (slurry)
- Solubility ([6]; iBuOH, 1 vol): ✓ (dissolved)
- Solubility ([6]; iPrOAc, 1 vol): x (not dissolved/too dry to slurry)
- Solubility ([6]; iPrOAc, 2 vol): x (not dissolved/too dry to slurry)
- Solubility ([6]; iPrOAc, 3 vol): x (not dissolved/too dry to slurry)
- Solubility ([6]; iPrOAc, 4 vol): x (not dissolved/too dry to slurry)
- Solubility ([6]; iPrOAc, 5 vol): x (not dissolved/too dry to slurry)
- Solubility ([6]; iPrOAc, 10 vol): ✓o (slurry)
- Solubility ([6]; iPrOH, 1 vol): ✓ (dissolved)
- Solubility ([6]; iPrOH/H2O (10%), 1 vol): ✓ (dissolved)
- Storage at 40° C./75% RH for 9 days (PXRD) [7]: did not crystallise; also recorded: amorphous
